Source: patent US8921576B2, “Spiroindoline compound, and medicinal agent comprising same” (Kowa Company, Ltd., priority 2011, dated 2014)

Key:
[1] = target: T1, GST-GK derived from human liver GK (Homo sapiens, UniProt P35557); assay: In vitro GK activity measurement test (G6PDH-coupled, OD340); format: biochemical; conditions: test compound 1 μmol/L; glucose 2.5 mmol/L; 25° C.; OD340 slope with compound / without compound; read-out: GK activation rate (%)
T1 construct: made in house; host or cells: Escherichia coli DH5α
T1 sequence (P35557 1-466 isoform P35557-2): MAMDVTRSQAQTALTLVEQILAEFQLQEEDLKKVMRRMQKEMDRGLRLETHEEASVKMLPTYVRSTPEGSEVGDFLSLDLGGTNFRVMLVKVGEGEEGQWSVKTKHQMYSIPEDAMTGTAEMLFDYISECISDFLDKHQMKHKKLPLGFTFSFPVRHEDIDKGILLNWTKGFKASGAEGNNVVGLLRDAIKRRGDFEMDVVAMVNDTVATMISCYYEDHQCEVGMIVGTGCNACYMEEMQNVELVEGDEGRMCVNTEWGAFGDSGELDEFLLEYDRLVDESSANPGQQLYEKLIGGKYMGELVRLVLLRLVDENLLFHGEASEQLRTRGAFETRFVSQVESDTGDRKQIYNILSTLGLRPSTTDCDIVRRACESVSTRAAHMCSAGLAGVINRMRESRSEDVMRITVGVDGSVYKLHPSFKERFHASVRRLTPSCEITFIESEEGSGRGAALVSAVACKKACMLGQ
Method in brief: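 GST-fused human liver glucokinase (variant 2, E. coli-expressed) at 0.1 μg/mL final, in pH 7.1 Hepes with 2.5 mmol/L glucose, 5 mmol/L ATP, NADP and G6PDH coupling, at 25° C. OD340 slope monitored over 10 min. Activation rate is slope with test compound (1 μmol/L) divided by slope without.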

[2] = system: normal mice (C57BL/6j mice); assay: Oral glucose tolerance test after single administration of test compound in normal mice; format: in vivo; conditions: 30 mg/kg oral in 10% Gelucire44/14; 2 g/kg glucose oral 30 minutes later; versus solvent alone; FIG. 1
Description: FIG. 1 is a view showing the results of an oral sugar tolerance test that was carried out after completion of a single administration of the compound of Example 68, in which the 30 mg/kg compound was orally administered to normal mice, and 30 minutes later, 2 g/kg glucose was orally administered thereto, followed by confirmation of a hypoglycemic action of the compound.
The test compound (Example 68) (30 mg/kg) suspended in 10% (v/v) Gelucire44/14 (GATTEFOSSE) was orally administered to normal mice (C57BL/6j mice, CLEA Japan, Inc.). Thirty minutes later, 2 g/kg glucose was orally administered to the mice. The blood glucose level was measured using an automatic blood glucose level measurement apparatus (Medisafe, TERUMO), before administration of the test compound, 25 minutes after administration of the test compound, and 15, 30, 60, and 120 minutes after administration of glucose. Thus, the action of the test compound to lower blood glucose level was evaluated.

SMILES | activity at 1 µM [1] | blood glucose level (action to lower blood glucose level) [2]
CCOC(=O)CCCc1ccc2c(c1)C1(CCN(C(=O)NC)C1)CN2C(=O)Nc1ncc(Cl)s1 (stereo not shown) [Example 419, ethyl 4-(1-((5-chlorothiazol-2-yl)carbamoyl)-1′-(methylcarbamoyl)spiro[indoline-3,3′-pyrrolidin]-5-yl)butanoate] | 535% | 
O=C(CCNC(=O)N1CCC2(C1)CN(C(=O)Nc1ncc(Cl)s1)c1ccc(Cl)cc12)N1CCC1 (stereo not shown) [Example 466, N1′-(3-(Azetidin-1-yl)-3-oxopropyl)-5-chloro-N1-(5-chlorothiazol-2-yl)spiro[indoline-3,3′-pyrrolidine]-1,1′-dicarboxamide] | 446% | 
CC(=O)N1CCC2(C1)CN(C(=O)Nc1ncc(F)s1)c1ccc(Cl)cc12 (stereo not shown) [Example 68, 1′-acetyl-5-chloro-N-(5-fluorothiazol-2-yl)spiro[indoline-3,3′-pyrrolidine]-1-carboxamide] |  | lower than that of the mice orally administered with the solvent alone
COC(=O)N1CC[C@@]2(C1)CN(C(=O)Nc1ncc(F)s1)c1ccc(Cl)cc12 [Example 355, (S)-methyl 5-chloro-1-((5-fluorothiazol-2-yl)carbamoyl)spiro[indoline-3,3′-pyrrolidine]-1′-carboxylate] | 636% | 
